Measurements published in article PMC3361708 (Cell Metabolism, 2012).

Molecular target: T1, mAdpn (Mus musculus, UniProt Q91WW7)
T1 sequence (Q91WW7 1-413): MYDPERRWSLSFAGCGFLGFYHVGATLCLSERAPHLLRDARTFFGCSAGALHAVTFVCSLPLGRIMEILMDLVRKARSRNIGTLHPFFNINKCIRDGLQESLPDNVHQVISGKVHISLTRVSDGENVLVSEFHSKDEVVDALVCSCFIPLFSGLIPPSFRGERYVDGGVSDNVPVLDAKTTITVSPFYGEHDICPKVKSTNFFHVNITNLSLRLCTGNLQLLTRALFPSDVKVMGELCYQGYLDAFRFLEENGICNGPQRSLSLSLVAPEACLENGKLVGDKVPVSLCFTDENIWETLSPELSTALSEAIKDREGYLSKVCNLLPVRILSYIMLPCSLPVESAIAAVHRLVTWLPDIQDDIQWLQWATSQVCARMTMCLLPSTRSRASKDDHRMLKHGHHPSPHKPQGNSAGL
Assay: radiometric LPAAT assay, TLC, Michaelis-Menten fit
Format: biochemical
Settings: co-substrate LPA; labelled compound [1-14C]

Km: 12.5 µM
Structure (SMILES): CCCCCCCC/C=C\CCCCCCCC(=O)SCCNC(=O)CCNC(=O)[C@H](O)C(C)(C)COP(=O)(O)OP(=O)(O)OC[C@H]1O[C@@H](n2cnc3c(N)ncnc32)[C@H](O)[C@@H]1OP(=O)(O)O [oleoyl-CoA]
